One series deals with T1, COX-2 (Ovis aries, UniProt P79208).
T1 construct: 3 Unit of COX-2 (Layman chemical) that is separated from sheep placenta and purified; purchased Layman chemical (sic); host or cells: sheep placenta (tissue-derived)
T1 sequence (P79208 17-603): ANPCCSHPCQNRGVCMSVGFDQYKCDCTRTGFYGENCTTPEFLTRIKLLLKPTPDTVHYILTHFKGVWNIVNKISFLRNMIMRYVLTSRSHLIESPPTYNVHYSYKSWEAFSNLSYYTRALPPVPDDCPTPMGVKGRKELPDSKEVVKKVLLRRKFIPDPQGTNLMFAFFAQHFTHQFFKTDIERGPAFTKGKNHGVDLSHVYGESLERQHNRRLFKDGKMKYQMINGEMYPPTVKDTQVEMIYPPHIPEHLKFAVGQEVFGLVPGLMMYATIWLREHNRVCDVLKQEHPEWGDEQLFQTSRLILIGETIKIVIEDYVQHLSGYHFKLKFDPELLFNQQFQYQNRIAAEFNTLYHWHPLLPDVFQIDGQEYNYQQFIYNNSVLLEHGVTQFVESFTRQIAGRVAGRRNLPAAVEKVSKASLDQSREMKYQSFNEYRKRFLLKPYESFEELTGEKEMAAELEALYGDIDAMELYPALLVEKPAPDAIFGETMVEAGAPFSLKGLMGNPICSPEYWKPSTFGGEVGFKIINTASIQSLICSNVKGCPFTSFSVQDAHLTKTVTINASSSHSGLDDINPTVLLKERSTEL
Kind of series: Inhibition of PGE2 synthesis by inhibiting COX-2 activity (in vitro, TLC/autoradiography). The series is classed as biochemical, sheep. The note with it: for IC50: 3 Unit COX-2 from sheep placenta, [1-14C] arachidonic acid, 37° C. for 20 min. The procedure: The inhibition effect of the novel derivatives against PGE2 synthesis was tested in vitro. […] The novel derivatives were synthesized from (−)-pimara-9(11), 15-diene-4-carboxylic acid, which is a diterpene compound isolated from root-bark of Acanthopanax Koreanum.
The mixture was stranded on ice for 5 min. To the mixture, the sample for assay of COX-2 activity was added, and then incubated on ice for 10 min. After preincubation, 0.02 μCi of [1-^14C] arachidonic acid, as an substrate, was added, and reacted at 37° C. for 20 min. For the termination of the reaction, 10 μl of 2 M HCl was added. Prostaglandin produced was extracted with ethylether twice. Two ethylether layers were integrated, and the solvent was evaporated at a 37° C. water-bath. […] PGE2 part of TLC plate developed was observed using autoradiography (PACKARD). The amount of PGE2 decreased by the sample was compared with reference, and then COX-2 inhibition activity of the sample was determined.

A short description of the next series: Cytotoxicity, MTT assay. The format is cell-based. The following applies: mouse, Raw 264.7 cells; Raw 264.7, MTT assay at 48 hours after sample treatment. The procedure: (§1) To investigate the utility of diterpene derivatives synthesized, cytotoxicities of some derivatives were tested.
(§2) The cytotoxicity was tested using Raw 264.7. The cytotoxicity and non-cytotoxicity were judged by performing MTT assay at 48 hours after sample treatment.

The test system of series [1] is mono-arthritis model, tibeo-calcanean joint. In words: Anti-inflammatory activity against acute inflammation, adjuvant mono-arthritis model (edema index). The series is classed as in vivo. The following applies: rat, 5 mg/kg intraperitoneal; for edema index size: 1 hour after inducing inflammation; for effect on edema index compared with koprofen or indometacin: after 4 hours. On the procedure: For some of the natural single material and synthetic derivatives thereof, of which the inhibition effect against PGE2 synthesis was tested in Experimental example 1, the anti-inflammatory activity against arthritis was tested using a mono-arthritis model as follows:
Derivatives synthesized were dissolved in the mixed solvent of ethanol: Tween 80: saline (1:1:8), and then administered by intrapertioneal injection. Referring to the result of the in vitro test, 5 mg/kg was used as a dose for primary screening test. Adjuvant that was dissolved in mineral oil and then sterilized, was administered into tibeo-calcanean joint of right crus posterius of rat to induce arthritis. The injection volume is controlled to be contained M. butyricum 100 μg/50 μl.
Edema degree was determined primarily, and the degree was used as an index of inflammation. The degree was determined by the estimation method for section area of tibeo-calcanean joint part. Width and length measurements of the joint part were taken according to time schedule upon inducing inflammation, and the width multiplied by the length. The multiplied value was then used as a section area index (SAI). On the basis of the section area index, edema index was calculated as follows: […]
(SAI of inflammatory joint−SAI of normal joint)
Each index was determined at 1, 4 and 24 hours after adjuvant injection. The index value determined at the same part before adjuvant injection was used as one of normal joint.
Unpaired t-test or ANOVA using Fisher PLSD verified the statistical significance.

Another series concerns Raw 264.7. In words: Cytotoxicity, MTT assay. The series is classed as cell-based. The following applies: Raw 264.7, MTT assay at 48 hours after sample treatment. The procedure: as §1, §2

We go through 25 compounds from US6593363B1, “Diterpene derivatives and anti-inflammatory analgesic agents comprising the same” (Sae Han Pharm. Co., Ltd., priority 1998, dated 2003).

A value given as a limit tells only on which side of the number the result lay.

As to `COCOCC[C@@]1(C)CC=C2[C@@H](CC[C@@H]3[C@](C)(C(=O)O)CCC[C@@]23C)C1` [Example 50, 16-Methoxymethoxy-(−)-Pimara-9(11)-En-4-Carboxylic Acid], the IC50 at COX-2 is over 2000 µM. On COX-2, `C=C[C@@]1(C)CC=C2C(CCC3[C@@]2(C)CCC[C@@]3(C)/C=C/C=C/C(=O)O)C1` (stereo partly drawn) [Example 29, 4-Carboxybutadienyl-(−)-pimara-9(11),15-diene] showed a half-inhibitory concentration (IC50) of 26.8 µM. On to `C[C@]1(CCO)CC=C2C(CCC3[C@](C)(C(=O)O)CCC[C@@]23C)C1` (stereo partly drawn) [Example 15, 16-Hydroxy-(−)-pimara-9(11)-en-4-carboxylic acid], for which 139 µM corresponded to half-maximal inhibition in the series “Cytotoxicity, MTT assay” (IC50 at 48 h). The compound further came in with an IC50 against COX-2 of over 2000 µM.

`CC(=O)OCCC1(C)CC=C2C(CCC3C(C)(C(=O)O)CCCC23C)C1` (stereo not drawn) [Example 48, 16-Acetyloxy-(−)-Pimara-9(11)-En-4-Carboxylic Acid]: on COX-2, the IC50 worked out at 1420 µM. The compound `COCC[C@@]1(C)CC=C2[C@@H](CC[C@@H]3[C@](C)(C(=O)O)CCC[C@@]23C)C1` [Example 46, 16-Methoxy-(−)-Pimara-9(11)-En-4-Carboxylic Acid] had an IC50 at COX-2 of over 2000 µM. In turn, `C=C[C@@]1(C)CC=C2C(CCC3[C@](C)(C(=O)NN)CCC[C@@]23C)C1` (stereo partly drawn) [Example 13, 4-Carbazoyl-(−)-pimara-9(11), 15-diene] returned a half-maximal inhibitory concentration (IC50) against COX-2 of 41.9 µM. In “Cytotoxicity, MTT assay”, `C=C[C@@]1(C)CC=C2C(CCC3[C@@]2(C)CCC[C@@]3(C)/C=C/C(=O)O)C1` (stereo partly drawn) [Example 7, 4-Carboxyvinyl-(−)-pimara-9(11),15-diene] gave an IC50 at 48 h of 139 µM. Moreover, the IC50 against COX-2 was determined as 69.7 µM.

Compound `C=CC1(C)CC=C2C(CCC3C(C)(CC(=O)NS(=O)(=O)c4ccc(I)cc4)CCCC23C)C1` (stereo not drawn) [Example 38, 4-(N-pipsyl)carbamoylmethyl-(−)-pimara-9(11),15-diene] came in with an IC50 against COX-2 of 72.2 µM. In turn, “16-Methoxyethoxymethoxy-(−)-Pimara-9(11)-En-4-Carboxylic Acid [Example 52]” returned a half-inhibitory concentration (IC50) against COX-2 of over 2000 µM.

As for `C=C[C@@]1(C)CC=C2C(CCC3[C@](C)(C(=O)O)CCC[C@@]23C)C1` (single isomer, unassigned; (-)) [Natural Component, (−)-pimara-9(11),15-diene-4-carboxylic acid, reference compound], at COX-2, it took 790 µM to reach half-maximal inhibition (IC50). In the series “Cytotoxicity, MTT assay”, `C=C[C@@]1(C)CC=C2[C@@H](CC[C@@H]3[C@](C)(CCC(=O)O)CCC[C@@]23C)C1` [Example 9, 4-Carboxyethyl-(−)-pimara-9(11),15-diene] gave a 50% inhibitory concentration (IC50) at 48 h of 114 µM. Also, on COX-2, the “inhibition effect against PGE2 synthesis (in words)” value (shortened to “inhibition effect”) is on record as “excellent inhibition effect” and half-maximal inhibition (IC50) was put at 105 µM. In series [1], the edema index size entry was “not more then half” and the “effect on edema index compared with koprofen or indometacin” value is recorded as “even superior effect”. In the case of `C=CC1(C)CC=C2C(CCC3C(C)(C=CC(=O)O)CCCC23C)C1` (stereo not drawn) [Example 7, 4-Carboxyvinyl-(−)-pimara-9(11),15-diene], the “inhibition effect” value against COX-2 is “excellent inhibition effect”. With `C=CC1(C)CC=C2C(CCC3C(C)(C=CC=CC(=O)NS(=O)(=O)c4ccc(I)cc4)CCCC23C)C1` (stereo not drawn) [Example 43, 4-(N-Pipsyl)Carbamoylbutadienyl-(−)-Pimara-9(11),15-Diene], the midpoint of inhibition on COX-2, the IC50, lay at 25.6 µM. In the case of “13-Isoxazolinyl-(−)-pimara-9(11)-en-4-carboxylic acid [Example 21]”, the IC50 with Raw 264.7 is 250 µM; on COX-2, over 2000 µM. Compound `CON=CCC1(C)CC=C2C(CCC3C(C)(C(=O)O)CCCC23C)C1` (stereo not drawn) [Example 55, 16-Methoxyimino-(−)-Pimara-9(11)-En-4-Carboxylic Acid] had an IC50 against COX-2 of over 2000 µM. On COX-2, `C=CC1(C)CC=C2C(CCC3C(C)(CCC(=O)NS(=O)(=O)c4ccc(I)cc4)CCCC23C)C1` (stereo not drawn) [Example 40, 4-(N-pipsyl)carbamoylethyl-(−)-pimara-9(11),15-diene] had an IC50 of 60.7 µM.

On to `C=CC1(C)CC=C2C(CCC3C(C)(C(=O)NC)CCCC23C)C1` (stereo not drawn) [Example 12, 4-(N-methyl)carbamoyl-(−)-pimara-9(11), 15-diene], for which the IC50 against COX-2 was over 2000 µM. Same read-out and setting: the same measure for `C=CC1(C)CC=C2C(CCC3C(C)(CCC=CC(=O)O)CCCC23C)C1` (stereo not drawn) [Example 33, 4-Carboxyhomoallyl-(−)-pimara-9(11),15-diene]: 63.8 µM. In turn, “16-Hydroxy-(−)-pimara-4-carboxylic acid [Example 16]” gave a half-inhibitory concentration (IC50) with Raw 264.7 of 137 µM. Further, at COX-2, the “inhibition effect” value is given as “excellent inhibition effect”. For the compound `C=CC1(C)CC=C2C(CCC3C(C)(CCC(=O)NS(C)(=O)=O)CCCC23C)C1` (stereo not drawn) [Example 41, 4-(N-methanesulfonyl)carbamoylethyl-(−)-pimara-9(11),15-diene], it took 180 µM to reach half-maximal inhibition on COX-2 (IC50). `C=C[C@@]1(C)CC=C2C(CCC3[C@](C)(C(N)=O)CCC[C@@]23C)C1` (stereo partly drawn) [Example 11, 4-Carbamoyl-(−)-pimara-9(11), 15-diene] had an IC50 against COX-2 of over 2000 µM. For the compound `C=CC1(C)CC=C2C(CCC3C(C)(CC(=O)O)CCCC23C)C1` (stereo not drawn) [Example 5, 4-Carboxymethyl-(−)-pimara-9(11),15-diene], half-maximal inhibition in the series on Raw 264.7 (IC50) was put at 140 µM. Further, at COX-2, the “inhibition effect” value is recorded as “excellent inhibition effect” and the concentration for half-maximal inhibition (IC50) was determined as 82.3 µM. In series [1], the edema index size entry is on record as “not more then half” and the “effect on edema index compared with koprofen or indometacin” value was “even superior effect”.

Compound `C=CC1(C)CC=C2C(CCC3C(C)(C(=O)NO)CCCC23C)C1` (stereo not drawn) [Example 14, 4-(N-hydroxy)carbaomyl-(−)-pimara-9(11), 15-diene] yielded an IC50 at COX-2 of 819 µM. As to `C=CC1(C)CC=C2C(CCC3C(C)(CO)CCCC23C)C1` (stereo not drawn) [Example 1, 4-Hydroxymethyl-(−)-pimara-9(11),15-diene], the IC50 at COX-2 was over 2000 µM. Turning to `CC1(CCO)CC(O)C2C(CCC3C(C)(C(=O)O)CCCC23C)C1` (stereo not drawn) [Example 19, 11,16-Dihydroxy-(−)-pimara-4-carboxylic acid], the half-inhibitory concentration (IC50) in the series on Raw 264.7 was 152 µM; on COX-2, over 2000 µM.
